Consider 23 molecules from patent US20200347043A1, “MODULATORS OF THE INTEGRATED STRESS PATHWAY” (Calico Life Sciences LLC, priority 2019, published 2020).

For the test, the system named is HEK293T cells carrying the ATF4 luciferase reporter. The test is described as follows: ATF4-Luc assay (in vitro model of VWMD). The format is cell-based, human. As to conditions: Homo sapiens, HEK-293T, 1 μg/mL tunicamycin, 7 hours, One Glo luminescence. How it is done: In order to test exemplary compounds of the invention in a cellular context, a stable VWMD cell line was first constructed. The ATF4 reporter was prepared by fusing the human full-length ATF4 5′-UTR (NCBI Accession No. BC022088.2) in front of the firefly luciferase (FLuc) coding sequence lacking the initiator methionine as described in Sidrauski et al (eLife 2013). The construct was used to produce recombinant retroviruses using standard methods and the resulting viral supernatant was used to transduce HEK293T cells, which were then subsequently selected with puromycin to generate a stable cell line.
HEK293T cells carrying the ATF4 luciferase reporter were plated on polylysine coated 384-well plates (Greiner Bio-one) at 30,000 cells per well. Cells were treated the next day with 1 μg/mL tunicamycin and 200 nM of a compound of Formula (I) for 7 hours. Luminescence was measured using One Glo (Promega) as specified by the manufacturer. Cells were maintained in DMEM with L-glutamine supplemented with 10% heat-inactivated FBS (Gibco) and Antibiotic-Antimycotic solution (Gibco).
Table 4 below summarizes the EC50 data obtained using the ATF4-Luc assay for exemplary compounds of the invention.

A word on the EC50: it is the midpoint of the concentration-response curve. In the case of `O=C(NC12CC(n3cnc(-c4ccc(C(F)(F)F)nc4)c3)(C1)C2)[C@@H]1C[C@@H](O)c2cc(Cl)ccc2O1` [Compound 231, (2S,4R)-6-chloro-4-hydroxy-N-(3-{4-[6-(trifluoromethyl)pyridin-3-yl]-1H-imidazol-1-yl}bicyclo[1.1.1]pentan-1-yl)-3,4-dihydro-2H-1-benzopyran-2-carboxamide], the EC50 lay in the range of 10 to 50 nM.

Turning to `O=C(NC12CC(c3cc(-c4ccc(Cl)cc4)no3)(C1)C2)[C@@H]1C[C@@H](O)c2cc(Cl)ccc2O1` [Compound 247, (2S,4R)-6-chloro-N-{3-[3-(4-chlorophenyl)-1,2-oxazol-5-yl]bicyclo[1.1.1]pentan-1-yl}-4-hydroxy-3,4-dihydro-2H-1-benzopyran-2-carboxamide], the EC50 fell in the range of 50 to 250 nM.

Consider `O=C(NC12CC(n3cc(-c4ccc(OC(F)(F)F)cc4)cn3)(C1)C2)[C@H]1C[C@@H](O)c2cc(Cl)ccc2O1` [Compound 302, (2R,4R)-6-chloro-4-hydroxy-N-(3-{4-[4-(trifluoromethoxy)phenyl]-1H-pyrazol-1-yl}bicyclo[1.1.1]pentan-1-yl)-3,4-dihydro-2H-1-benzopyran-2-carboxamide], for which the EC50 was below 10 nM.

Turning to `O=C(NC12CC(c3cnn(-c4ccc(Cl)cc4)c3)(C1)C2)[C@H]1C[C@@H](O)c2cc(Cl)ccc2O1` [Compound 264, (2R,4R)-6-chloro-N-{3-[1-(4-chlorophenyl)-1H-pyrazol-4-yl]bicyclo[1.1.1]pentan-1-yl}-4-hydroxy-3,4-dihydro-2H-1-benzopyran-2-carboxamide], the EC50 was below 10 nM.

Turning to `O=C(NC12CCC(C(=O)NCc3ccc(C(F)(F)F)cn3)(CC1)CC2)[C@@H]1C[C@@H](O)c2cc(Cl)ccc2O1` [Compound 193, (2S,4R)-6-chloro-4-hydroxy-N-[4-({[5-(trifluoromethyl)pyridin-2-yl]methyl}carbamoyl)bicyclo[2.2.2]octan-1-yl]-3,4-dihydro-2H-1-benzopyran-2-carboxamide], the EC50 is 50 to 250 nM.

Turning to `O=C(NC12CC(c3ncc(-c4ccc(Cl)cc4)o3)(C1)C2)[C@H]1C[C@@H](O)c2cc(Cl)ccc2O1` [Compound 254, (2R,4R)-6-chloro-N-{3-[5-(4-chlorophenyl)-1,3-oxazol-2-yl]bicyclo[1.1.1]pentan-1-yl}-4-hydroxy-3,4-dihydro-2H-1-benzopyran-2-carboxamide], the concentration for a half-maximal effect (EC50) was below 10 nM.

For the molecule `O=C1C[C@H](C(=O)NC23CC(C(=O)NCc4ccc(C(F)(F)F)cn4)(C2)C3)Oc2ccc(Cl)cc21` [Compound 132, (2R)-6-chloro-4-oxo-N-[3-({[5-(trifluoromethyl)pyridin-2-yl]methyl}carbamoyl)bicyclo[1.1.1]pentan-1-yl]-3,4-dihydro-2H-1-benzopyran-2-carboxamide], the EC50 was in the range of 50 to 250 nM.

In the case of `O=C(NC12CC(N3CC(c4ccc(Cl)cc4)OC3=O)(C1)C2)[C@H]1C[C@@H](O)c2cc(Cl)ccc2O1` (stereo partly drawn) [Compound 277, (2R,4R)-6-chloro-N-{3-[5-(4-chlorophenyl)-2-oxo-1,3-oxazolidin-3-yl]bicyclo[1.1.1]pentan-1-yl}-4-hydroxy-3,4-dihydro-2H-1-benzopyran-2-carboxamide], the EC50 lay within 50 to 250 nM.

In the case of `O=C(CO[C@H]1C[C@@H](OC(F)(F)F)C1)N[C@H]1CC[C@H](NC(=O)[C@H]2CC(=O)c3cc(Cl)ccc3O2)CC1` [Compound 213, (2R)-6-chloro-4-oxo-N-[trans-4-(2-{[cis-3-(trifluoromethoxy)cyclobutyl]oxy}acetamido)cyclohexyl]-3,4-dihydro-2H-1-benzopyran-2-carboxamide], the EC50 is 50 to 250 nM.

With `O=C(CO[C@H]1C[C@@H](OC(F)(F)F)C1)NC12CCC(NC(=O)[C@H]3C[C@@H](O)c4cc(Cl)ccc4O3)(CC1)CC2` [Compound 195, (2R,4R)-6-chloro-4-hydroxy-N-[4-(2-{[cis-3-(trifluoromethoxy)cyclobutyl]oxy}acetamido)bicyclo[2.2.2]octan-1-yl]-3,4-dihydro-2H-1-benzopyran-2-carboxamide], the EC50 was below 10 nM.

On to `O=C(N[C@H]1CC[C@H](C(=O)NCc2nc3ccc(Cl)cc3[nH]2)CC1)[C@H]1C[C@@H](O)c2cc(Cl)ccc2O1` (racemic) [Compound 126, rac-(2R,4R)-6-chloro-N-[(1r,4R)-4-{[(6-chloro-1H-benzimidazol-2-yl)methyl]carbamoyl}cyclohexyl]-4-hydroxy-3,4-dihydro-2H-1-benzopyran-2-carboxamide], for which the EC50 lay within 10 to 50 nM.

For the molecule `O=C(CO[C@H]1C[C@@H](OC(F)(F)F)C1)NC12CC(NC(=O)[C@H]3CC(=O)c4cc(Cl)ccc4O3)(C1)C2` [Compound 162, (2R)-6-chloro-4-oxo-N-[3-(2-{[cis-3-(trifluoromethoxy)cyclobutyl]oxy}acetamido)bicyclo[1.1.1]pentan-1-yl]-3,4-dihydro-2H-1-benzopyran-2-carboxamide], the EC50 lay within 10 to 50 nM.

`Cc1nc(C23CC(NC(=O)[C@@H]4C[C@@H](O)c5cc(Cl)ccc5O4)(C2)C3)oc1-c1ccc(Cl)cc1` [Compound 275, (2S,4R)-6-chloro-N-{3-[5-(4-chlorophenyl)-4-methyl-1,3-oxazol-2-yl]bicyclo[1.1.1]pentan-1-yl}-4-hydroxy-3,4-dihydro-2H-1-benzopyran-2-carboxamide]: the EC50 fell in the range of 50 to 250 nM.

Turning to `O=C(NC12CC(C3NC(COc4ccc(Cl)c(F)c4)=NO3)(C1)C2)[C@H]1C[C@@H](O)c2cc(Cl)ccc2O1` (stereo partly drawn) [Compound 154, (2R,4R)-6-chloro-N-(3-{3-[(4-chloro-3-fluorophenoxy)methyl]-4,5-dihydro-1,2,4-oxadiazol-5-yl}bicyclo[1.1.1]pentan-1-yl)-4-hydroxy-3,4-dihydro-2H-1-benzopyran-2-carboxamide], the EC50 fell in the range of 10 to 50 nM.

Turning to `O=C1C[C@H](C(=O)NC23CCC(C(=O)N[C@H]4C[C@@H](OC(F)(F)F)C4)(CC2)CC3)Oc2ccc(Cl)cc21` [Compound 221, (2R)-6-chloro-4-oxo-N-(4-{[cis-3-(trifluoromethoxy)cyclobutyl]carbamoyl}bicyclo[2.2.2]octan-1-yl)-3,4-dihydro-2H-1-benzopyran-2-carboxamide], the EC50 fell in the range of 50 to 250 nM.

On to `O=C(N[C@H]1C[C@H]2CC[C@@H](C1)N2CCCOc1ccc(Cl)cc1)[C@H]1C[C@@H](O)c2cc(Cl)ccc2O1` [Compound 125, (2R,4R)-6-chloro-N-{(1R,3r,5S)-8-[3-(4-chlorophenoxy)propyl]-8-azabicyclo[3.2.1]octan-3-yl}-4-hydroxy-3,4-dihydro-2H-1-benzopyran-2-carboxamide], for which the 50% effective concentration (EC50) fell in the range of 50 to 250 nM.

Take `O=C(NC12CC(n3cnc(-c4ccc(C(F)(F)F)nc4)c3)(C1)C2)[C@H]1C[C@@H](O)c2cc(Cl)ccc2O1` [Compound 201, (2R,4R)-6-chloro-4-hydroxy-N-(3-{4-[6-(trifluoromethyl)pyridin-3-yl]-1H-imidazol-1-yl}bicyclo[1.1.1]pentan-1-yl)-3,4-dihydro-2H-1-benzopyran-2-carboxamide]: the EC50 is below 10 nM.

For `O=C(N[C@@H]1CC[C@@H](c2ncc([C@H]3C[C@@H](OC(F)(F)F)C3)o2)OC1)[C@H]1C[C@@H](O)c2cc(Cl)ccc2O1` [Compound 292, (2R,4R)-6-chloro-4-hydroxy-N-[(3R,6S)-6-{5-[3-(trifluoromethoxy)cyclobutyl]-1,3-oxazol-2-yl}oxan-3-yl]-3,4-dihydro-2H-1-benzopyran-2-carboxamide], the EC50 was below 10 nM.

For the molecule `O=C(NC12CC(NC(=O)[C@H]3C[C@@H](O)c4cc(Cl)ccc4O3)(C1)C2)c1cnc(-c2ccccc2)o1` [Compound 285, N-(3-{[(2R,4R)-6-chloro-4-hydroxy-3,4-dihydro-2H-1-benzopyran-2-carbonyl]amino}bicyclo[11.1]pentan-1-yl)-2-phenyl-1,3-oxazole-5-carboxamide], the EC50 is below 10 nM.

Turning to `O=C(NC12CCC(c3nnc([C@H]4C[C@@H](OC(F)(F)F)C4)o3)(CC1)OC2)C1CC(O)c2cc(Cl)ccc2O1` (some centres unmarked) [Compound 165], the concentration for a half-maximal effect (EC50) was in the range of 10 to 50 nM.

As to `O=C(N[C@H]1C[C@@H](OC(F)(F)F)C1)[C@H]1C[C@H]2O[C@@H]1C[C@@H]2NC(=O)[C@H]1C[C@@H](O)c2cc(Cl)ccc2O1` (mixture of isomers) [Compound 219, (2R,4R)-6-chloro-4-hydroxy-N-[(1RS,2SR,4RS,5SR)-5-{[cis-3-(trifluoromethoxy)cyclobutyl]carbamoyl}-7-oxabicyclo[2.2.1]heptan-2-yl]-3,4-dihydro-2H-1-benzopyran-2-carboxamide], the EC50 was 500 to 2000 nM.

Take `O=C1C[C@H](C(=O)NC23CC(c4nc(COc5ccc(Cl)c(F)c5)no4)(C2)C3)Oc2ccc(Cl)cc21` [Compound 155, (2R)-6-chloro-N-(3-{3-[(4-chloro-3-fluorophenoxy)methyl]-1,2,4-oxadiazol-5-yl}bicyclo[1.1.1]pentan-1-yl)-4-oxo-3,4-dihydro-2H-1-benzopyran-2-carboxamide]: the EC50 is 10 to 50 nM.

As to `O=C(NC12CC(c3cc(-c4ccc(Cl)cc4)on3)(C1)C2)[C@@H]1C[C@@H](O)c2cc(Cl)ccc2O1` [Compound 257, (2S,4R)-6-chloro-N-{3-[5-(4-chlorophenyl)-1,2-oxazol-3-yl]bicyclo[1.1.1]pentan-1-yl}-4-hydroxy-3,4-dihydro-2H-1-benzopyran-2-carboxamide], the EC50 lay in the range of 50 to 250 nM.
